# Data published in BindingDB's records for doi:10.1016/j.bmcl.2004.02.025 (Universidade Federal De Minas Gerais, 2004).
# Test: Inhibitory concentration of compound against glyceraldehyde-3-phosphate dehydrogenase was determined
row,IC50,Compound
1,0.1 µM,COc1cccc(C(=O)NC2C(O)[C@@H](COP(=O)([O-])OP(=O)(O)OC[C@H]3O[C@@H]([n+]4ccc(C(N)=O)cc4)C(O)C3O)O[C@H]2n2cnc3c(NCc4cccc5ccccc45)ncnc32)c1 (some centres undefined) [Adenosine analogue]
2,29 µM,CCOC(=O)c1cn([C@@H]2O[C@H](COC(=O)c3ccccc3)[C@@H](OC(=O)c3ccccc3)[C@H]2OC(=O)c2ccccc2)c2ccc(Cl)cc2c1=O
3,5 µM,"COc1cccc(C(=O)NC2C(O)[C@@H](COP(=O)(O)O)O[C@H]2n2cnc3c(NCc4cccc5ccccc45)ncnc32)c1 (stereo partly drawn) [Phosphoric acid mono-((2R,5R)-3-hydroxy-4-(3-methoxy-benzoylamino)-5-{6-[(naphthalen-1-ylmethyl)-amino]-purin-9-yl}-tetrahydro-furan-2-ylmethyl) ester]"
4,12 µM,"COc1cccc(C(=O)NC2C(O)[C@@H](CO)O[C@H]2n2cnc3c(NCc4cccc5ccccc45)ncnc32)c1 (stereo partly drawn) [N-((2R,5R)-4-Hydroxy-5-hydroxymethyl-2-{6-[(naphthalen-1-ylmethyl)-amino]-purin-9-yl}-tetrahydro-furan-3-yl)-3-methoxy-benzamide]"
5,45 µM,COc1ccc(-n2nc3c4ccccc4n([C@@H]4O[C@H](COC(=O)c5ccccc5)[C@@H](OC(=O)c5ccccc5)[C@H]4OC(=O)c4ccccc4)cc-3c2=O)cc1 [Adenosine analogue]

# Test: Inhibitory concentration against glyceraldehyde-3-phosphate dehydrogenase was determined as log 1/IC50
row,IC50,Compound
1,56.2 µM,O=c1oc2ccc(/N=C/c3ccco3)cc2cc1-c1ccc2c(c1)OCO2
2,38.9 µM,O=c1oc2ccccc2cc1-c1ccc(O)cc1 [3-(4-Hydroxy-phenyl)-chromen-2-one]
3,191 µM,C=C(C)[C@@H]1Cc2c(cc(O)c3ccc(=O)oc23)O1
4,209 µM,COc1ccc2ccc(=O)oc2c1CC=C(C)C [osthole]
5,129 µM,C=C(C)[C@H]1O[C@@H]1c1c(O)ccc2ccc(=O)oc12
6,30.9 µM,O=c1oc2c(O)cccc2cc1-c1ccc2c(c1)OCO2
7,123 µM,CC1(C)C=Cc2c(ccc3ccc(=O)oc23)O1
8,67.6 µM,O=c1oc2ccccc2cc1-c1cccc(O)c1
9,692 µM,O=c1ccc2ccccc2o1 [2H-chromen-2-one]
10,617 µM,O=c1ccc2ccc(O)cc2o1 [umbelliferone]
11,145 µM,C=C(C)[C@H]1Cc2cc3ccc(=O)oc3cc2O1
12,162 µM,C=CC(C)(C)c1cc2ccc(O)cc2oc1=O
13,17 µM,CC(=O)Oc1cccc(-c2cc3cc(OC(C)=O)ccc3oc2=O)c1
14,85.1 µM,COc1cccc(-c2cc3cc(OC(C)=O)ccc3oc2=O)c1
15,52.5 µM,CC(=O)Oc1ccc(-c2cc3cc(OC(C)=O)ccc3oc2=O)cc1
16,195 µM,"CC1(C)C=Cc2cc3ccc(=O)oc3cc2O1 [8,8-Dimethyl-8H-pyrano[3,2-g]chromen-2-one]"
17,74.1 µM,CC1=C2c3c(ccc4ccc(=O)oc34)OCC2OC1=O (centres undefined)
18,64.6 µM,CC(=O)Oc1ccc2oc(=O)c(-c3ccc4c(c3)OCO4)cc2c1
19,123 µM,CC(=O)Oc1ccc2oc(=O)c(-c3ccccc3)cc2c1
20,56.2 µM,O=c1oc2ccc(/N=C/c3ccc[nH]3)cc2cc1-c1ccc2c(c1)OCO2
21,257 µM,COc1cc2ccc(=O)oc2cc1O [7-hydroxy-6-methoxy-2H-chromen-2-one]

row,Compound,IC50
1,COc1c2c(cc3oc(=O)ccc13)OCC2,347 µM
2,"CC(=O)Oc1ccc(-c2cc3cc(OC(C)=O)c(OC(C)=O)cc3oc2=O)cc1OC(C)=O [6,7-diacetoxy-3-[30,40-diacetoxyphenyl]-coumarin]",17.8 µM

# Test: as above
# Remark: another data set of the same source
row,Compound,IC50
1,C=CC(C)(C)c1cc2cc3c(cc2oc1=O)O[C@H](C(C)(C)O)C3 [Chalepin],55 µM
